Key:
[1] = molecular target: Homeodomain-interacting protein kinase 4 (Homo sapiens) (UniProt Q8NE63); test: Inhibition of wild-type human partial length HIPK4 (M1 to V384 residues) expressed in bacterial expression system assessed as residual activity at 1 uM by Kinomescan method relative to control
[2] = molecular target: Tyrosine-protein kinase ITK/TSK (Homo sapiens) (UniProt Q08881); test: Inhibition of wild-type human partial length ITK (R335 to L620 residues) expressed in bacterial expression system assessed as residual activity at 1 uM by Kinomescan method relative to control
[3] = molecular target: Vascular endothelial growth factor receptor 2 (Homo sapiens) (UniProt P35968); test: Inhibition of wild-type human partial length VEGFR2 (R787 to P1253 residues) expressed in mammalian expression system assessed as residual activity at 1 uM by Kinomescan method relative to control
[4] = molecular target: Serine/threonine-protein kinase PLK2 (Homo sapiens) (UniProt Q9NYY3); test: Inhibition of wild-type human partial length PLK2 (H58 to F354 residues) expressed in mammalian expression system assessed as residual activity at 1 uM by Kinomescan method relative to control
[5] = molecular target: CDK6/cyclin D1 (Homo sapiens) (UniProt P24385+Q00534); test: Inhibition of wild-type human full length CDK6 (M1 to A326 residues)/cyclin D1 expressed in mammalian expression system assessed as residual activity at 1 uM by Kinomescan method relative to control
[6] = molecular target: Epidermal growth factor receptor (Homo sapiens) (UniProt P00533); test: Inhibition of wild-type human partial length EGFR (R669 to V1011 residues) expressed in bacterial expression system assessed as residual activity at 1 uM by Kinomescan method relative to control
Chain of Epidermal growth factor receptor (Homo sapiens) (P00533 whole entry, the tested form may be a part): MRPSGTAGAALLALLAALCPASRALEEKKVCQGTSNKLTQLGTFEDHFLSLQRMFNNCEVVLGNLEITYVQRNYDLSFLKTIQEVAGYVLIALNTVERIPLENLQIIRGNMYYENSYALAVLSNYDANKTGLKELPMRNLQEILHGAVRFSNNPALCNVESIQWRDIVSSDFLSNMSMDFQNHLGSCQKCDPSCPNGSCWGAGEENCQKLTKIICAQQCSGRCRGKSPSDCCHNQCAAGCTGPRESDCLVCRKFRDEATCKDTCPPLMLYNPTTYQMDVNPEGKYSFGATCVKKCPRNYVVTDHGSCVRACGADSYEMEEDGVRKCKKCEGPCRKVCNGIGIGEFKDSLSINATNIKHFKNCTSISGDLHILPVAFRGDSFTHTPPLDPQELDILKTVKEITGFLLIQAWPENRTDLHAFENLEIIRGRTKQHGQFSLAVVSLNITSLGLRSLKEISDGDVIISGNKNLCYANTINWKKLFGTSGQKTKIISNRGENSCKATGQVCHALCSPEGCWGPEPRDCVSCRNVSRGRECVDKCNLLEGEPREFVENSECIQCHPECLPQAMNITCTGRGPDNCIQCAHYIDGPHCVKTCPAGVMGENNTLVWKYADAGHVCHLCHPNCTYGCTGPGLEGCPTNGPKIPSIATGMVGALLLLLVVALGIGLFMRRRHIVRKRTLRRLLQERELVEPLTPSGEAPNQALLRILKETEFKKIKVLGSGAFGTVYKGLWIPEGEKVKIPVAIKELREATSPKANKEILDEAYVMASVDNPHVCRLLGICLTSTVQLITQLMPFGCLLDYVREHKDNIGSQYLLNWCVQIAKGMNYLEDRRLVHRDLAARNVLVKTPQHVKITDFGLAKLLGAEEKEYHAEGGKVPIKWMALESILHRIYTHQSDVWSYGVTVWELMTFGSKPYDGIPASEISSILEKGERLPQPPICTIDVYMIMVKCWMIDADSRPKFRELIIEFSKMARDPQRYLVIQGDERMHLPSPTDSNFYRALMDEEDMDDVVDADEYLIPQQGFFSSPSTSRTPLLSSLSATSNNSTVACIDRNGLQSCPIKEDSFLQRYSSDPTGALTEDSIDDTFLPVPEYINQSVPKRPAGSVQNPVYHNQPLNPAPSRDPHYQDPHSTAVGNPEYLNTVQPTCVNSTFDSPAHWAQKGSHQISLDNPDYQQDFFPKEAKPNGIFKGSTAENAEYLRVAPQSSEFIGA

[7] = molecular target: Serine/threonine-protein kinase NLK (Homo sapiens) (UniProt Q9UBE8); test: Inhibition of wild-type human full length NLK (M13 to E527 residues) expressed in bacterial expression system assessed as residual activity at 1 uM by Kinomescan method relative to control
[8] = molecular target: Ephrin type-A receptor 2 (Homo sapiens) (UniProt P29317); test: Inhibition of wild type human partial length EPHA2 (T593 to V891 residues) expressed in bacterial expression system assessed as residual activity at 1 uM by Kinomescan method relative to control
[9] = molecular target: Serine/threonine-protein kinase WNK1 (Homo sapiens) (UniProt Q9H4A3); test: Inhibition of wild-type human partial length WNK1 (Q194 to A490 residues) expressed in mammalian expression system assessed as residual activity at 1 uM by Kinomescan method relative to control
[10] = molecular target: Vascular endothelial growth factor receptor 3 (Homo sapiens) (UniProt P35916); test: Inhibition of wild-type human partial length FLT4 (E821 to E1196 residues) expressed in bacterial expression system assessed as residual activity at 1 uM by Kinomescan method relative to control
[11] = molecular target: Serine/threonine-protein kinase VRK1 (Homo sapiens) (UniProt Q99986); test: Inhibition of VRK1 (unknown origin) assessed as residual activity at 1 uM by Kinomescan method relative to control
[12] = molecular target: Mitogen-activated protein kinase kinase kinase 8 (Homo sapiens) (UniProt P41279); test: Inhibition of COT1 (unknown origin) assessed as residual activity at 1 uM by Kinomescan method relative to control
[13] = molecular target: Tyrosine-protein kinase receptor TYRO3 (Homo sapiens) (UniProt Q06418); test: Inhibition of wild-type human partial length TYRO3 (S497 to T814 residues) expressed in bacterial expression system assessed as residual activity at 1 uM by Kinomescan method relative to control
Chain of Tyrosine-protein kinase receptor TYRO3 (Homo sapiens) (Q06418 whole entry, the tested form may be a part): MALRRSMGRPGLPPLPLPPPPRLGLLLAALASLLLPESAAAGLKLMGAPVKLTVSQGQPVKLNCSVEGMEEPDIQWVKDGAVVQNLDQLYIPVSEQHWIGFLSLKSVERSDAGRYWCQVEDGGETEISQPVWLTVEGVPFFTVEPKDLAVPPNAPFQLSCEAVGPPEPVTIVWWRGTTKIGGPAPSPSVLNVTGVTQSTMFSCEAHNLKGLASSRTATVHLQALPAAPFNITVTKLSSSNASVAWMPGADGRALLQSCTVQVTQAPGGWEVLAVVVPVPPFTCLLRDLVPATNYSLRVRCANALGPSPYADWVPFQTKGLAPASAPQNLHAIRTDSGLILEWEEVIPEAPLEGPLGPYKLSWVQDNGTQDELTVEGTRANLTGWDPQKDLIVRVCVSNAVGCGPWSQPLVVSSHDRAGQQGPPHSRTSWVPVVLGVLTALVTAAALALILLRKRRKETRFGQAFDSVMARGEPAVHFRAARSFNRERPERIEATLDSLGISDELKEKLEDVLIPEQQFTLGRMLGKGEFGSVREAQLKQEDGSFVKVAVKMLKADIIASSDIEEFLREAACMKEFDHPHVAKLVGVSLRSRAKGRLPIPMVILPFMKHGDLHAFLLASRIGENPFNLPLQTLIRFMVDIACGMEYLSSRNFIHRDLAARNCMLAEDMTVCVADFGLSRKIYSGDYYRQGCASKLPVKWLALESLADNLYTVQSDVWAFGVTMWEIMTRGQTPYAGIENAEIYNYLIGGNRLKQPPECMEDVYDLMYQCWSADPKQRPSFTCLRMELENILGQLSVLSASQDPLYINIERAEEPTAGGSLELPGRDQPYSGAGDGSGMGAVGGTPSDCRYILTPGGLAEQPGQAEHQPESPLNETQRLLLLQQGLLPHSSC

[14] = molecular target: Calcium/calmodulin-dependent protein kinase type 1D (Homo sapiens) (UniProt Q8IU85); test: Inhibition of wild-type human partial length CAMK1D (M1 to K299 residues) expressed in bacterial expression system assessed as residual activity at 1 uM by Kinomescan method relative to control
Chain of Calcium/calmodulin-dependent protein kinase type 1D (Homo sapiens) (Q8IU85 whole entry, looked up, the tested form may be a part): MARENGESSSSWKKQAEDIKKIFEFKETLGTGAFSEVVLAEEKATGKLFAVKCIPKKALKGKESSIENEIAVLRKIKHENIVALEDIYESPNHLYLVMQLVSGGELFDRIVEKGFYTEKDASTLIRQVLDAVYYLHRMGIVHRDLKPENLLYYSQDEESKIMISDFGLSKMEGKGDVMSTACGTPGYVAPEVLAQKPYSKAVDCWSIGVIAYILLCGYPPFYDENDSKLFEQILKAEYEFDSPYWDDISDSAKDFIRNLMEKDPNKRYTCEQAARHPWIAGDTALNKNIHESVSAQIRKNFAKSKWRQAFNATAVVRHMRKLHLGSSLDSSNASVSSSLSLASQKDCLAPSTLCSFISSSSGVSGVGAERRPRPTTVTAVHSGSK

[15] = molecular target: Rhodopsin kinase GRK1 (Homo sapiens) (UniProt Q15835); test: Inhibition of wild-type human full length GRK1 (M1 to S563 residues) expressed in mammalian expression system assessed as residual activity at 1 uM by Kinomescan method relative to control
[16] = molecular target: Tau-tubulin kinase 2 (Homo sapiens) (UniProt Q6IQ55); test: Inhibition of TTBK2 (unknown origin) assessed as residual activity at 1 uM by Kinomescan method relative to control
[17] = molecular target: Calcium/calmodulin-dependent protein kinase type 1B (Homo sapiens) (UniProt Q6P2M8); test: Inhibition of wild-type human partial length CAMK1B (W9 to A311 residues) expressed in mammalian expression system assessed as residual activity at 1 uM by Kinomescan method relative to control
Chain of Calcium/calmodulin-dependent protein kinase type 1B (Homo sapiens) (Q6P2M8 whole entry, the tested form may be a part): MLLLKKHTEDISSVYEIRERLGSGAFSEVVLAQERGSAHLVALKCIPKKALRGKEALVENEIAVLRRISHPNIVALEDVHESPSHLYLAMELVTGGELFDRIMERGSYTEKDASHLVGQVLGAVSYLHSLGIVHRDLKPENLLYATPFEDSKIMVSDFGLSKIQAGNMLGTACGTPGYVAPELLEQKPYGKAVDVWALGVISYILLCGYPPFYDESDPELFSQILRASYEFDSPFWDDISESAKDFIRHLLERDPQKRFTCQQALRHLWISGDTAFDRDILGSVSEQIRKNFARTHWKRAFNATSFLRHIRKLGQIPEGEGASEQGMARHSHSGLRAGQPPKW

[18] = molecular target: Serine/threonine-protein kinase Nek6 (Homo sapiens) (UniProt Q9HC98); test: Inhibition of wild-type human full length NEK6 (M8 to T313 residues) expressed in bacterial expression system assessed as residual activity at 1 uM by Kinomescan method relative to control
[19] = molecular target: Tyrosine-protein kinase Fgr (Homo sapiens) (UniProt P09769); test: Inhibition of wild-type human partial length FGR (L233 to T529 residues) expressed in bacterial expression system assessed as residual activity at 1 uM by Kinomescan method relative to control
[20] = molecular target: Nuclear receptor subfamily 1 group I member 2 (Homo sapiens, UniProt O75469); test: Inhibition of human PXR
[21] = molecular target: Serine/threonine-protein kinase D2 (Homo sapiens) (UniProt Q9BZL6); test: Inhibition of wild-type human partial length PRKD2 (A519 to E838 residues) expressed in bacterial expression system assessed as residual activity at 1 uM by Kinomescan method relative to control
Chain of Serine/threonine-protein kinase D2 (Homo sapiens) (Q9BZL6 whole entry, the tested form may be a part): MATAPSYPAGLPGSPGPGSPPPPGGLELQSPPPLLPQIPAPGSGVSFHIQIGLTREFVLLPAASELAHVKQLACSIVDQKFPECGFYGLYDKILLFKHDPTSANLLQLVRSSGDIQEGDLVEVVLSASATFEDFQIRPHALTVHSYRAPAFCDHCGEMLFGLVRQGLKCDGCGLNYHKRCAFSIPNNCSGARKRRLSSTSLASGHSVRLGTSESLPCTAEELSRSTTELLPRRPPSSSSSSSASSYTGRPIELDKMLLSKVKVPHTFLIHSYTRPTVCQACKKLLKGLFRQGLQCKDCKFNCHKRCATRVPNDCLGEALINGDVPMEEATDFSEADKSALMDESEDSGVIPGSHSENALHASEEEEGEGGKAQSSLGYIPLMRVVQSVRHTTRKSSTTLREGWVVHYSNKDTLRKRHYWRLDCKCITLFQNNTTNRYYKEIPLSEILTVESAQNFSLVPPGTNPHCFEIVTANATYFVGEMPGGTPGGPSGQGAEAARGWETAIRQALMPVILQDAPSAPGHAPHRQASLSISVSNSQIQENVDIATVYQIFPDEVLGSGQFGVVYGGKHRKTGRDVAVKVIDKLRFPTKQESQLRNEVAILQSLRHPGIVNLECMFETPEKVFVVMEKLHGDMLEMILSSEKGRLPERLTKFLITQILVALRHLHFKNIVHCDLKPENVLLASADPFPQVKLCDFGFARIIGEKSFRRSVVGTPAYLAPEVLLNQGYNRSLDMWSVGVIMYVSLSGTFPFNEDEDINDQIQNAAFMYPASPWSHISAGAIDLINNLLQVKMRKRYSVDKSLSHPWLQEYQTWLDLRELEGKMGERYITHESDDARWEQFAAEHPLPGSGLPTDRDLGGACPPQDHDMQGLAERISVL

[22] = Permeability ratio across apical side to basolateral side in MDCK2 cells transfected with Bacmam virus containing human BCRP at 3 uM after 90 mins in presence or absence of GF120918 by transwell assay; type: ADME, cell-based, Canis lupus familiaris; settings: dog, mdck-ii, 1.5 h
[23] = molecular target: Tau-tubulin kinase 1 (Homo sapiens) (UniProt Q5TCY1); test: Inhibition of TTBK1 (unknown origin) assessed as residual activity at 1 uM by Kinomescan method relative to control
[24] = molecular target: LIM domain kinase 1 (Homo sapiens) (UniProt P53667); test: Inhibition of wild-type human full length LIMK1 (M1 to D647 residues) expressed in bacterial expression system assessed as residual activity at 1 uM by Kinomescan method relative to control
Chain of LIM domain kinase 1 (Homo sapiens) (P53667 whole entry, looked up, the tested form may be a part): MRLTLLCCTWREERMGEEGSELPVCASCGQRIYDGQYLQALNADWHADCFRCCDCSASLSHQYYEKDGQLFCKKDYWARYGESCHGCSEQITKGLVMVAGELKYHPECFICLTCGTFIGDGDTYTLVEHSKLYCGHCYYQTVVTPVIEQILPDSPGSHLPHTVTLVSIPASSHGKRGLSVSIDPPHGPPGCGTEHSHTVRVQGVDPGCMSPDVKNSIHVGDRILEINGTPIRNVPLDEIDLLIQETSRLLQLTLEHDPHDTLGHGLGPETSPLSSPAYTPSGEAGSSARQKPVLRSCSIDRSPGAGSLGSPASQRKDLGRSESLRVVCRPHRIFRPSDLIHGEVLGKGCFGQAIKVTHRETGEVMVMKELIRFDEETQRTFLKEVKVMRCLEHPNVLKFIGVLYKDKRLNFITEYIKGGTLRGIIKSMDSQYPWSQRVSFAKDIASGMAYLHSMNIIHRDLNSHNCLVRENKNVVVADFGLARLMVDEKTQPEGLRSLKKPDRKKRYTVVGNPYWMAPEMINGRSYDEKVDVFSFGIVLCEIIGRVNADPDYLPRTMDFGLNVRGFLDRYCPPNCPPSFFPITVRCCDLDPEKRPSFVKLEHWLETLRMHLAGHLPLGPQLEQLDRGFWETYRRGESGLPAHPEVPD

[25] = molecular target: Dual specificity mitogen-activated protein kinase kinase 1 (Homo sapiens) (UniProt Q02750); test: Inhibition of wild-type human full length MEK1 (M1 to V393 residues) expressed in mammalian expression system assessed as residual activity at 1 uM by Kinomescan method relative to control
Chain of Dual specificity mitogen-activated protein kinase kinase 1 (Homo sapiens) (Q02750 whole entry, the tested form may be a part): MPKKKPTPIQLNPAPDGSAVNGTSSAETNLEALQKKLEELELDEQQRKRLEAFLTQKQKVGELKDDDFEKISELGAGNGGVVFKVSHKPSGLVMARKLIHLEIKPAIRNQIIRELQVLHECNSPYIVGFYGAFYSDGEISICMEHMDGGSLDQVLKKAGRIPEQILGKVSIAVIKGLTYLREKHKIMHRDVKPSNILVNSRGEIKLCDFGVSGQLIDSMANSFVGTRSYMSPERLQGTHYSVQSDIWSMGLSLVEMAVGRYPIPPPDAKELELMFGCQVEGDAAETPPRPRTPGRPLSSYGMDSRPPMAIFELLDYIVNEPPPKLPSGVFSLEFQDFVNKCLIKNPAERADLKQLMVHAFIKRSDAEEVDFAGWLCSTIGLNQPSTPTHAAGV

[26] = molecular target: CDK9/Cyclin K (Homo sapiens) (UniProt P50750+O75909); test: Inhibition of wild-type human full length CDK9 (M1 to F372 residues)/cyclin K expressed in bacterial expression system assessed as residual activity at 1 uM by Kinomescan method relative to control
[27] = molecular target: CDK2/Cyclin A1 (Homo sapiens) (UniProt P24941+P78396); test: Inhibition of CDK2/Cyclin A1 (unknown origin) assessed as residual activity at 1 uM by Kinomescan method relative to control; type: protein-complex assay

CCOc1nc(Nc2ccc(C(=O)N3CCOCC3)cc2OC)nc2[nH]ccc12
Activity [1]: 101% | Activity [2]: 99.8% | Activity [3]: 97.7% | Activity [4]: 89.4% | Activity [5]: 98.8% | Activity [6]: 99.6% | Activity [7]: 94.5% | Activity [8]: 106% | Activity [9]: 78.5% | Activity [10]: 106% | Activity [11]: 86.7% | Activity [12]: 101% | Activity [13]: 109% | Activity [14]: 122% | Activity [15]: 95.2% | Activity [16]: 104% | Activity [17]: 117% | Activity [18]: 96.8% | Activity [19]: 104% | EC50 [20]: > 50.1 µM | Activity [21]: 62.1% | Ratio [22]: 3.1 | Activity [23]: 103% | Activity [24]: 98% | Activity [25]: 100% | Activity [26]: 103% | Activity [27]: 74%

— ChEMBL document CHEMBL4715821, “Discovery of 4-ethoxy-7H-pyrrolo[2,3-d]pyrimidin-2-amines as potent, selective and orally bioavailable LRRK2 inhibitors” (Bioorg Med Chem Lett, 2018)
